{"source": "patent US20230088704A1", "about": "“A PHARMACEUTICAL COMBINATION FOR THE TREATMENT OF A CANCER” (ABILITY PHARMACEUTICALS S.L., priority 2020, published 2023)", "key": {"LA1-5S cells [1]": {"system": "LA1-5S cells", "assay": "Cell viability (crystal violet), ABTL0812 with irinotecan", "format": "cell-based", "conditions": "ABTL0812 30 μM + irinotecan 4, 8, 16 μM; 72 hours", "method": "Methods: LA1-5S cells were incubated with increasing concentrations of irinotecan (4 μM, 8 μM and 16 μM) and a fixed concentration of ABTL0812 (30 μM). Cells were treated for 72 hours in IMDM with 0.5% FBS. Cell viability was evaluated by crystal violet assay. Data is presented as mean±SEM of three independent experiments. Statistical analyses were performed according to the T-Test principle with GraphPad Prism® 5.0 software (*p<0.05; **p<0.01; ***p<0.001)."}, "LA1-5S cells [2]": {"system": "LA1-5S cells", "assay": "Cell viability (crystal violet), ABTL0812 with cyclophosphamide", "format": "cell-based", "conditions": "ABTL0812 30 μM + cyclophosphamide 1, 1.5, 2 μM; 72 hours", "method": "Methods: LA1-5S cells were incubated with increasing concentrations of cyclophosphamide (1 μM, 1.5 μM and 2 μM) and a subIC50 fixed concentration of ABTL0812 (30 μM). Cells were treated for 72 hours in IMDM with 0.5% FBS. Cell viability was evaluated by crystal violet assay. Data is presented as mean±SEM of three independent experiments. Statistical analyses were performed according to the T-Test principle with GraphPad Prism® 5.0 software (*p<0.05; **p<0.01; ***p<0.001)."}, "JJN-3 cells": {"system": "JJN-3 cells", "assay": "Cell viability (MTT) and combination index, ABTL0812 with bortezomib", "format": "cell-based", "conditions": "ABTL0812 5 μM, Bortezomib 0.5 nM, alone or combined; 48h", "method": "(§1) Methods: JJN-3 and OPM2 cells were seeded in 24-well plates and treated with ABTL0812 (5 μM), bortezomib (0.5 and 1 nM respectively) or a combination of both drugs and left in the incubator for 48h (0.5% FBS). Cell viability was studied by the MTT assay and combination index was determined to evaluate a possible synergism.\n(§2) Cell viability was evaluated in all cases by MTT assay and the Combination Index (CI), to evaluate synergism, was calculated according to the method of Chou and Talalay (Chou 2006; Chou 2010), as follows: CI=(D)1/(Dx)1+(D)2/(Dx)2, where CI<1, =1, and >1 indicate synergism, additive effect, and antagonism, respectively. In the denominator, (Dx)1 is for D1 “alone” that inhibits a system x %, and (Dx)2 is for D2 “alone” that inhibits a system x %."}, "OPM2 cells": {"system": "OPM2 cells", "assay": "Cell viability (MTT) and combination index, ABTL0812 with bortezomib", "format": "cell-based", "conditions": "ABTL0812 5 μM, Bortezomib 1 nM, alone or combined; 48h", "method": "as §1, §2"}, "T98G cells": {"system": "T98G cells", "assay": "Human glioblastoma subcutaneous xenograft, ABTL0812 with radiotherapy", "format": "in vivo, nude mice", "method": "(§3) Methods: Mice were injected subcutaneously with 1×10^6 U87MG or T98G cells in each flank to induce tumor formation. […] ABTL0812 was administered orally at 240 mg/kg 5 days/week and radiotherapy as single dose of 4 Gy administered at day 3."}, "U87MG cells": {"system": "U87MG cells", "assay": "Human glioblastoma subcutaneous xenograft, ABTL0812 with radiotherapy", "format": "in vivo, nude mice", "method": "as §3"}, "Ishikawa cells [3]": {"system": "Ishikawa cells", "assay": "Human endometrial cancer xenograft, ABTL0812 with olaparib", "format": "in vivo", "conditions": "ABTL0812 oral 120 mg/kg/day; Olaparib oral 50 mg/kg/day", "method": "Methods: Mice were injected with 4×10^6 Ishikawa cells in one flank to induce tumor formation. […] Olaparib was administered by the oral route 50 mg/kg/day. Tumor volume and body weight were monitored 3 times a week."}, "Ishikawa cells [4]": {"system": "Ishikawa cells", "assay": "Human endometrial cancer xenograft, ABTL0812 with bevacizumab", "format": "in vivo", "conditions": "ABTL0812 oral 120 mg/kg/day; Bevacizumab ip 100 μg/dose every four days", "method": "Methods: Mice were injected with 4×10^6 Ishikawa cells in one flank to induce tumor formation. […] Bevacizumab was administered ip at 100 μg/dose, every four days up to four administration. Tumor volume and body weight were monitored 3 times a week."}, "[5]": {"system": "PMA-activated THP-1 macrophages", "assay": "Conditioned media of ABTL0812-treated MiaPaca2 cells on THP-1 macrophages", "format": "cell-based, human", "conditions": "conditioned media from MiaPaca2 cells treated with ABTL0812 40 μM 72 hours", "method": "Methods: MiaPaca2 cells were incubated with 40 μM of ABTL0812 during 72 hours and conditioned media (RPMI) of these ABTL0812-treated cells were collected. In parallel, human THP-1 cells were differentiated to macrophages by incubation with PMA (Phorbol myristate acetate) for 24 hours, inducing their attachment to the plates. Then, conditioned media from ABTL0812-treated MiaPaca2 cells was transferred to PMA-activated THP-1 macrophages and incubated during 24 hours for RT-qPCR analysis of M1 phenotype markers IL-1β and TNF-α, or during 48 hours for cell viability studies using the MTT assay. For M1 marker analysis, cells were collected, RNA extracted, retrotranscribed to cDNA and mRNA levels of IL-1β and TNF-α assessed by RT-qPCR."}, "MiaPaca2 cells [6]": {"system": "MiaPaca2 cells", "assay": "Cytotoxicity against MiaPaca2 cells", "format": "cell-based, human", "conditions": "previous results"}, "H157 cells": {"system": "H157 cells", "assay": "PDL1 protein in xenograft tumors by western blot", "format": "in vivo, nude mice", "conditions": "ABTL0812 oral 120 mg/kg/day for three weeks", "method": "(§4) Methods: Mice were injected with 4×10^6 H157 cells or 5×10^6 MiaPAca2 cells in one flank to induce tumor formation. […] After treatment, animals were sacrificed, tumor extracted and protein levels of PDL1 in cancer cells analyzed by western blot."}, "MiaPaca2 cells [7]": {"system": "MiaPaca2 cells", "assay": "PDL1 protein in xenograft tumors by western blot", "format": "in vivo, nude mice", "conditions": "ABTL0812 oral 120 mg/kg/day for three weeks", "method": "as §4"}, "LLC1 cells [8]": {"system": "LLC1 cells", "assay": "Syngeneic lung cancer model, subcutaneous LLC1, survival", "format": "in vivo, C57BL6 mice", "conditions": "ABTL0812 oral 120 mg/kg/day, anti-PD1 i.p. 100 ug/dose every three days", "method": "C57BL6 mice were injected with 0.25×10^6 LLC1 cells in one flank to induce tumor formation. […] Tumor volume and body weight were monitored 3 times a week. End point criteria was based on tumors over 800 mm3, or clinical signs of toxicity, distress or suffering indicative of animal euthanasia."}, "LLC1 cells [9]": {"system": "LLC1 cells", "assay": "Syngeneic lung cancer model, subcutaneous LLC1, tumor volume", "format": "in vivo, C57BL6 mice", "conditions": "ABTL0812 oral 120 mg/kg/day; anti-PD1 i.p. 100 μg/dose every three days; carboplatin and paclitaxel i.p. once a week", "method": "C57BL6 mice were injected with 0.25×10^6 LLC1 cells in one flank to induce tumor formation. […] Tumor volume and body weight were monitored 3 times a week."}, "[10]": {"conditions": "ABTL0812 oral 240 mg/kg 5 days/week"}, "[11]": {"conditions": "ABTL0812 oral 240 mg/kg 5 days/week + radiotherapy single dose 4 Gy at day 3"}}, "data": [{"smiles": "CCCCC/C=C\\C/C=C\\CCCCCCC(O)C(=O)O", "note": "(stereo not shown) [ABTL0812, COOH—CHOH—(CH2)6—(CH═CH—CH2)2—(CH2)3—CH3]", "values": [{"measurement": "irinotecan cytotoxicity on addition of ABTL0812", "setting": "LA1-5S cells [1]", "value": "significantly increased irinotecan cytotoxicity"}, {"measurement": "cyclophosphamide cytotoxicity on addition of ABTL0812", "setting": "LA1-5S cells [2]", "value": "significantly increased cyclophosphamide cytotoxicity at 1 μM"}, {"measurement": "cell death", "setting": "JJN-3 cells", "value": "around 10%"}, {"measurement": "cell death", "setting": "OPM2 cells", "value": "around 20%"}, {"measurement": "growth of subcutaneous tumors, single agent", "setting": "T98G cells; [10]", "value": "significantly decreased the growth of glioblastoma subcutaneous tumors"}, {"measurement": "growth of subcutaneous tumors, combination with radiotherapy", "setting": "T98G cells; [11]", "value": "significantly more efficacious than ABTL0812 or radiotherapy as single treatments"}, {"measurement": "growth of subcutaneous tumors, single agent", "setting": "U87MG cells; [10]", "value": "significantly decreased the growth of glioblastoma subcutaneous tumors"}, {"measurement": "growth of subcutaneous tumors, combination with radiotherapy", "setting": "U87MG cells; [11]", "value": "significantly more efficacious than ABTL0812 or radiotherapy as single treatments"}, {"measurement": "tumor volume", "setting": "Ishikawa cells [3]", "value": "significantly reduced tumor volume"}, {"measurement": "tumor volume", "setting": "Ishikawa cells [4]", "value": "significantly reduced tumor volume"}, {"measurement": "gene expression of IL-1β", "setting": "[5]; 24 hours on macrophages", "value": "significantly increasing the gene expression"}, {"measurement": "gene expression of TNF-α", "setting": "[5]; 24 hours on macrophages", "value": "significantly increasing the gene expression"}, {"measurement": "THP-1 cell viability (MTT)", "setting": "[5]; 48 hours on macrophages", "value": "significantly increasing THP-1 cell viability"}, {"measurement": "IC50", "setting": "MiaPaca2 cells [6]", "value": 50, "unit": "µM"}, {"measurement": "protein levels of PDL1 in tumor", "setting": "H157 cells", "value": "Increases protein levels of PDL1 in tumor in vivo"}, {"measurement": "protein levels of PDL1 in tumor", "setting": "MiaPaca2 cells [7]", "value": "Increases protein levels of PDL1 in tumor in vivo"}, {"measurement": "survival", "setting": "LLC1 cells [8]; after 9 days of treatment", "value": 43, "unit": "%"}, {"measurement": "survival", "setting": "LLC1 cells [8]; after 14 days of treatment", "value": 15, "unit": "%"}, {"measurement": "tumor volume", "setting": "LLC1 cells [9]", "value": "significantly reduced tumor volume"}]}]}
